In patent publication EP4603105A1, “PHARMACEUTICAL COMPOSITION CONTAINING CYCLIC COMPOUND HAVING SELECTIVE KRAS INHIBITORY EFFECT AGAINST HRAS AND NRAS” (CHUGAI SEIYAKU KABUSHIKI KAISHA, priority 2022, dated 2024):

Tests used:
HRAS wild-type protein = HRAS wild-type protein (Homo sapiens, UniProt P01112); assay: Binding to HRAS by surface plasmon resonance (SPR), KD and KD ratio to KRAS; conditions: ratio of KD for HRAS wild-type protein to KD for KRAS
Procedure, shortened: (§1)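 Each cycle, GDP-bound biotin-Avi RAS was captured (~100–300 RU), compound concentrations were injected low to high for 75 s each at 100 µL/min, then the chip was regenerated. Buffer: HBS pH 7.4, 10 mM MgCl2, 10 µM GDP, 1 mM DTT, 4% DMSO; 30°C. KD from a 1:1 binding model.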

[1] = test system: human lung cancer strain NCI-H441; assay type: cell-based
Procedure, shortened: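 Signal came from […] measured per well once the reagent was added. Beforehand, cells were cultured at 37°C and 5% carbon dioxide on a compound series serially diluted in dimethyl sulfoxide.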

[2] = biological target: GDP-bound NRAS wild-type protein (Homo sapiens, UniProt P01111); assay: Binding to NRAS by surface plasmon resonance (SPR), KD and KD ratio to KRAS; conditions: ratio of KD for GDP-bound NRAS wild-type protein to KD for KRAS
Sequence of GDP-bound NRAS wild-type protein (P01111 whole entry): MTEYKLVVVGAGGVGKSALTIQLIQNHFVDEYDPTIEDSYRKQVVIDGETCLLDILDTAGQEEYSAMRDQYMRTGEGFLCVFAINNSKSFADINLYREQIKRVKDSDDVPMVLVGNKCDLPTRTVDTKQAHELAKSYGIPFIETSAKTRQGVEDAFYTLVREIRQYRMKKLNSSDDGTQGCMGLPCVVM
Procedure, shortened: as §1

Sequence of HRAS wild-type protein (P01112 whole entry): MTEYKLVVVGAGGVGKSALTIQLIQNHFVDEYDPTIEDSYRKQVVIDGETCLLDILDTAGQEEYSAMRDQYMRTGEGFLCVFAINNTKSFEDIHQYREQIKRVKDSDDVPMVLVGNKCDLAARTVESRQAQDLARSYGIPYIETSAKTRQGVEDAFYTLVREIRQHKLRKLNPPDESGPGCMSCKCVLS

| SMILES | IC50 [1] [nM] | HRAS /KRAS (HRAS wild-type protein) | NRAS /KRAS [2] |
| --- | --- | --- | --- |
| CCO[C@@H]1C[C@H]2C(=O)NC3(CCC3)C(=O)N(C)[C@@H](C3CCCC3)C(=O)N(C)[C@H](C(=O)N(C)C)CC(=O)N(C)[C@@H](CC)C(=O)N[C@@H]([C@@H](C)CC)C(=O)N(C)CC(=O)N(C)[C@H]3CCCCCN(C3=O)[C@@H](Cc3ccc(C(F)(F)F)cc3)C(=O)N(C)CC(=O)N[C@@H](CCc3cc(Cl)c(C(F)(F)F)c(Cl)c3)C(=O)N2C1 [PP0989] | 135 | B (a compound having 3 or more and less than 10 is denoted as B) | B (a compound having 3 or more and less than 10 is denoted as B) |
| CCO[C@@H]1C[C@H]2C(=O)N[C@]3(C)CCCCCC[C@@H](C(=O)N[C@@H]([C@@H](C)CC)C(=O)N(C)CC(=O)N(C)[C@H]4CCCCN(C4=O)[C@@H](Cc4ccc(C(F)(F)F)cc4)C(=O)N(C)CC(=O)N[C@@H](CCc4cc(F)c(C(F)(F)F)c(F)c4)C(=O)N2C1)N(C)C(=O)C[C@@H](C(=O)N1CCOCC1)N(C)C(=O)[C@H](C1CCCC1)N(C)C3=O [PP0992] | 790 | B (a compound having 3 or more and less than 10 is denoted as B) | B (a compound having 3 or more and less than 10 is denoted as B) |
| CCO[C@@H]1C[C@H]2C(=O)N[C@@]3(C)CCCCCCC[C@@H](C(=O)N[C@@H]([C@@H](C)CC)C(=O)N(C)CC(=O)N(C)[C@H]4CCCCN(C4=O)[C@@H](Cc4ccc(C(F)(F)F)cc4)C(=O)N(C)CC(=O)N[C@@H](CCc4cc(F)c(C(F)(F)F)c(F)c4)C(=O)N2C1)N(C)C(=O)C[C@@H](C(=O)N1CCOCC1)N(C)C(=O)[C@H](C1CCCC1)N(C)C3=O [PP0993] | 332 | B (a compound having 3 or more and less than 10 is denoted as B) | B (a compound having 3 or more and less than 10 is denoted as B) |
| CC[C@H](C)[C@@H]1NC(=O)[C@H](CC(C)C)N(C)C(=O)C[C@@H](C(=O)N2CCOCC2)N(C)C(=O)[C@H](C2CCCC2)N(C)C(=O)C2(CCC2)NC(=O)[C@@H]2C[C@@H](OCCC(F)(F)F)CN2C(=O)[C@H](CCc2cc(F)c(C(F)(F)F)c(F)c2)NC(=O)CN(C)C(=O)[C@H](Cc2ccc(C(F)(F)F)cc2)N2CCCC[C@@H](C2=O)N(C)C(=O)CN(C)C1=O [PP0998] | 19.7 | B (a compound having 3 or more and less than 10 is denoted as B) | B (a compound having 3 or more and less than 10 is denoted as B) |
| CC[C@H](C)[C@@H]1NC(=O)[C@H](CC(C)C)N(C)C(=O)C[C@@H](C(=O)N2CCOCC2)N(C)C(=O)[C@H](C2CCCC2)N(C)C(=O)C2(CCC2)NC(=O)[C@@H]2C[C@@H](OCC(F)F)CN2C(=O)[C@H](CCc2cc(F)c(C(F)(F)F)c(F)c2)NC(=O)CN(C)C(=O)[C@H](Cc2ccc(C(F)(F)F)cc2)N2CCCC[C@@H](C2=O)N(C)C(=O)CN(C)C1=O [PP1002] | 2.1 | B (a compound having 3 or more and less than 10 is denoted as B) | B (a compound having 3 or more and less than 10 is denoted as B) |
| CC[C@H](C)[C@@H]1NC(=O)[C@H](CC(C)C)N(C)C(=O)C[C@@H](C(=O)N2CCOCC2)N(C)C(=O)[C@H](C2CCCC2)N(C)C(=O)C2(CCC2)NC(=O)[C@@H]2C[C@@H](OC)CN2C(=O)[C@H](CCc2cc(F)c(C(F)(F)F)c(F)c2)NC(=O)CN(C)C(=O)[C@H](Cc2ccc(C(F)(F)F)cc2)N2CCCC[C@@H](C2=O)N(C)C(=O)CN(C)C1=O [PP1003] | 29.1 | B (a compound having 3 or more and less than 10 is denoted as B) | C (A compound having a KD ratio of 0.1 or more and less than 3 is denoted as C) |
| CCCCO[C@@H]1C[C@H]2C(=O)NC3(CCC3)C(=O)N(C)[C@@H](C3CCCC3)C(=O)N(C)[C@H](C(=O)N3CCOCC3)CC(=O)N(C)[C@@H](CC(C)C)C(=O)N[C@@H]([C@@H](C)CC)C(=O)N(C)CC(=O)N(C)[C@H]3CCCCCN(C3=O)[C@@H](Cc3ccc(C(F)(F)F)cc3)C(=O)N(C)CC(=O)N[C@@H](CCc3cc(F)c(C(F)(F)F)c(F)c3)C(=O)N2C1 [PP1004] | 255 | B (a compound having 3 or more and less than 10 is denoted as B) | B (a compound having 3 or more and less than 10 is denoted as B) |
| CC[C@H](C)[C@@H]1NC(=O)[C@H](CC(C)C)N(C)C(=O)C[C@@H](C(=O)N2CCOCC2)N(C)C(=O)[C@H](C2CCCC2)N(C)C(=O)C2(CCC2)NC(=O)[C@@H]2C[C@@H](OCC3CC3)CN2C(=O)[C@H](CCc2cc(F)c(C(F)(F)F)c(F)c2)NC(=O)CN(C)C(=O)[C@H](Cc2ccc(C(F)(F)F)cc2)N2CCCCC[C@@H](C2=O)N(C)C(=O)CN(C)C1=O [PP1005] | 275 | A (a compound having 10 or more and less than 20 is denoted as A) | A (a compound having 10 or more and less than 20 is denoted as A) |

Now from value to molecule, other results behind:

| IC50 [1] [nM] | SMILES | HRAS /KRAS (HRAS wild-type protein) | NRAS /KRAS [2] |
| --- | --- | --- | --- |
| 61.2 | CC[C@H](C)[C@@H]1NC(=O)[C@H](CC(C)C)N(C)C(=O)C[C@@H](C(=O)N2CCOCC2)N(C)C(=O)[C@H](C2CCCC2)N(C)C(=O)C2(CCC2)NC(=O)[C@@H]2C[C@@H](OC)CN2C(=O)[C@H](CCc2cc(F)c(C(F)(F)F)c(F)c2)NC(=O)CN(C)C(=O)[C@H](Cc2ccc(C(F)(F)F)cc2)N2CCCCC[C@@H](C2=O)N(C)C(=O)CN(C)C1=O [PP1016] | B (a compound having 3 or more and less than 10 is denoted as B) | A (a compound having 10 or more and less than 20 is denoted as A) |
| 5 | CCO[C@@H]1C[C@H]2C(=O)NC3(CCCC3)C(=O)N(C)[C@@H](C3CCCC3)C(=O)N(C)[C@H](C(=O)N(C)C)CC(=O)N(C)[C@@H](CC(C)C)C(=O)N[C@@H]([C@@H](C)CC)C(=O)N(C)CC(=O)N(C)[C@H]3C[C@@H](C)CCN(C3=O)[C@@H](Cc3ccc(C(F)(F)F)cc3)C(=O)N(C)CC(=O)N[C@@H](CCc3cc(F)c(C(F)(F)F)c(F)c3)C(=O)N2C1 [PP1017] | B (a compound having 3 or more and less than 10 is denoted as B) | C (A compound having a KD ratio of 0.1 or more and less than 3 is denoted as C) |
| 7.4 | CCO[C@@H]1C[C@H]2C(=O)NC3(CCC3)C(=O)N(C)[C@@H](C3CCCC3)C(=O)N(C)[C@H](C(=O)N(C)C)CC(=O)N(C)[C@@H](CC(C)C)C(=O)N[C@@H]([C@@H](C)CC)C(=O)N3CC[C@H]3C(=O)N(C)[C@H]3C[C@@H](C)CCN(C3=O)[C@@H](Cc3ccc(C(F)(F)F)cc3)C(=O)N(C)CC(=O)N[C@@H](CCc3cc(F)c(C(F)(F)F)c(F)c3)C(=O)N2C1 [PP1019] | B (a compound having 3 or more and less than 10 is denoted as B) | C (A compound having a KD ratio of 0.1 or more and less than 3 is denoted as C) |
| 18 | CCO[C@@H]1C[C@H]2C(=O)NC3(CCC3)C(=O)N(C)[C@@H](C3CCCC3)C(=O)N(C)[C@H](C(=O)N(C)C)CC(=O)N(C)[C@@H](CC)C(=O)N[C@@H]([C@@H](C)CC)C(=O)N(C)CC(=O)N(C)[C@H]3C[C@@H](C)CCN(C3=O)[C@@H](Cc3ccc(C(F)(F)F)cc3)C(=O)N(C)CC(=O)N[C@@H](CCc3cc(F)c(C(F)(F)F)c(F)c3)C(=O)N2C1 [PP1020] | B (a compound having 3 or more and less than 10 is denoted as B) | C (A compound having a KD ratio of 0.1 or more and less than 3 is denoted as C) |
| 14 | CCO[C@@H]1C[C@H]2C(=O)NC3(CCC3)C(=O)N(C)[C@@H](C3CCCC3)C(=O)N(C)[C@H](C(=O)N(C)C)CC(=O)N(C)[C@@H](CC)C(=O)N[C@@H]([C@@H](C)CC)C(=O)N3CC[C@H]3C(=O)N(C)[C@H]3C[C@@H](C)CCN(C3=O)[C@@H](Cc3ccc(C(F)(F)F)cc3)C(=O)N(C)CC(=O)N[C@@H](CCc3cc(F)c(C(F)(F)F)c(F)c3)C(=O)N2C1 [PP1021] | B (a compound having 3 or more and less than 10 is denoted as B) | C (A compound having a KD ratio of 0.1 or more and less than 3 is denoted as C) |
| 17.5 | CCO[C@@H]1C[C@H]2C(=O)NC3(CCCC3)C(=O)N(C)[C@@H](C3CCCC3)C(=O)N(C)[C@H](C(=O)N(C)C)CC(=O)N(C)[C@@H](CC)C(=O)N[C@@H]([C@@H](C)CC)C(=O)N(C)CC(=O)N(C)[C@H]3C[C@@H](C)CCN(C3=O)[C@@H](Cc3ccc(C(F)(F)F)cc3)C(=O)N(C)CC(=O)N[C@@H](CCc3cc(F)c(C(F)(F)F)c(F)c3)C(=O)N2C1 [PP1022] | B (a compound having 3 or more and less than 10 is denoted as B) | C (A compound having a KD ratio of 0.1 or more and less than 3 is denoted as C) |
| 12.7 | CCO[C@@H]1C[C@H]2C(=O)NC3(CCCC3)C(=O)N(C)[C@@H](C3CCCC3)C(=O)N(C)[C@H](C(=O)N3CCOCC3)CC(=O)N(C)[C@@H](CC(C)C)C(=O)N[C@@H]([C@@H](C)CC)C(=O)N(C)CC(=O)N(C)[C@H]3C[C@@H](C)CCN(C3=O)[C@@H](Cc3ccc(C(F)(F)F)cc3)C(=O)N(C)CC(=O)N[C@@H](CCc3cc(F)c(C(F)(F)F)c(F)c3)C(=O)N2C1 [PP1024] | B (a compound having 3 or more and less than 10 is denoted as B) | B (a compound having 3 or more and less than 10 is denoted as B) |
| 10.7 | CCO[C@@H]1C[C@H]2C(=O)NC3(CCC3)C(=O)N(C)[C@@H](C3CCCC3)C(=O)N(C)[C@H](C(=O)N3CCOCC3)CC(=O)N(C)[C@@H](CC(C)C)C(=O)N[C@@H]([C@@H](C)CC)C(=O)N(C)CC(=O)N(C)[C@H]3C[C@@H](C)CCN(C3=O)[C@@H](Cc3ccc(C(F)(F)F)cc3)C(=O)N(C)CC(=O)N[C@@H](CCc3cc(F)c(C(F)(F)F)c(F)c3)C(=O)N2C1 [PP1025] | B (a compound having 3 or more and less than 10 is denoted as B) | C (A compound having a KD ratio of 0.1 or more and less than 3 is denoted as C) |
